Biological target: T1, PDGF-receptor beta enzyme comprising the tyrosine kinase domain (Homo sapiens, UniProt P09619)
T1 construct: from amino acid 545 to 1106 of GenBank Access NO: AAA36427
Assay: Inhibition of PDGF-receptor kinase activity (cell-free, PLC1 peptide, 33P Flashplate)
Format: biochemical
Conditions: PDGF-R kinase activity; for inhibition at 10 µM: compound at 10 uM, read-out: Percent Inhibition @ 10 uM; for IC50: read-out: IC50
Experimental: PDGF-R kinase activity was assayed by its ability to phosphorylate one of its target proteins, PLCγ, in a cell-free system, in particular, a PLC1 peptide comprising the tyrosine residue where the phosphorylation occurs was used for the assay.
10× Kinase Buffer (500 mM Tris-HCl pH=8, 100 mM MgCl2, 1 mM Na3VO4); 10 mM DTT (final concentration at 1 mM in assay); 10 mM ATP (final concentration at 5 μM in assay); ^33P-γ-ATP (Cat. No.: NEG/602H. 2000-3000 Ci/mmol) purchased from NEN; Purified, soluble, recombinant PDGF-receptor beta enzyme comprising the tyrosine kinase domain (from amino acid 545 to 1106 of GenBank Access NO: AAA36427 ) at 0.4 mg/mL; Enzyme Dilution Buffer (50 mM Tris-HCl pH=8.0, 0.1% BSA); Wash/Stop Buffer (PBS +100 mM EDTA); NEN Streptavidin Flashplates (Cat. No.: SMP-103) which binds to the biotinylated PLC1 peptide but not the PDGF-R enzyme; PLC1 peptide (Biotin-[…]-Amide) at 1 mM in 50 mM Tris-HCL with pH of 8.0.
Reagents were first mixed according the following regimen:
The above reaction mixture was dispensed into each well of a Flashplate at 70 μl/well. To test the effect of a compound on PDGF-R kinase activity, the test compound either in a fixed concentration or in serially diluted concentrations in 100% DMSO was added to appropriate wells at 1 μl/well.
Enzyme PDGF-R was diluted in Enzyme dilution buffer as following:
The kinase reaction was initiated by adding 30 μl of diluted PDGF-R enzyme solution to each well on the Flashplate containing hot ATP and PLC1, except wells of column 12 rows E through H, which were used to calculate the plate background. The Flashplate was swirled to mix and was incubated at 30° C. for 60 minutes. Then, the reaction mixture was discarded and the Flashplate was washed 3 times each with 200 μl Wash/Stop Buffer. Subsequently, each well on the Flashplate was filled with 200 μl of Wash/Stop buffer. The amount of ^33P retained in each well was measured using a Packard TopCount after the plate was sealed with a transparent plate sealer.
The percentage of inhibition of the test compound on PDGF-R kinase activity is defined as […].
In order to test the potency of inhibition of present compounds, an IC50 for an individual compound was measured using the above procedure. As used herein, the IC50 for PDGF-R kinase activity refers to the concentration of an inhibitor at which the activity of the PDGF-R kinase is reduced by one-half as compared with reactions containing no inhibitor.

T1 sequence (P09619 545-1106): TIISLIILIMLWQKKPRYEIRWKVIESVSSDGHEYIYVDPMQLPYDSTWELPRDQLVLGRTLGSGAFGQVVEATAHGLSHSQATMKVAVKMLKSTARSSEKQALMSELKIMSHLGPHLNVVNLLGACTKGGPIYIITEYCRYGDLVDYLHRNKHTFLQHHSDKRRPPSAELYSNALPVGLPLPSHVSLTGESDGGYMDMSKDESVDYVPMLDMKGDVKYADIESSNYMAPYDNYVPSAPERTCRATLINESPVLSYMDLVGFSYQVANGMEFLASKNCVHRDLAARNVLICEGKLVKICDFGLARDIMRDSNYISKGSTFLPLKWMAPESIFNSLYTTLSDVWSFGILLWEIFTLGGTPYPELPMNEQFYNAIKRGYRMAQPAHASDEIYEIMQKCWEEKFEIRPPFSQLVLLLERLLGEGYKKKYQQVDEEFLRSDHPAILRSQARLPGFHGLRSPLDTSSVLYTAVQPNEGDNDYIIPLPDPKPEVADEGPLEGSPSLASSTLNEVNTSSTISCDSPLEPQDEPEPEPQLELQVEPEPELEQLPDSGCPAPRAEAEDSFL

Row | SMILES | inhibition at 10 µM | IC50
1 | Cc1cccc2c1Cc1c-2n[nH]c1Nc1ccccc1 [Compound 23, (5-Methyl-2,4-dihydro-indeno[1,2-c]pyrazol-3-yl)-phenyl-amine] | 87% | 1940 nM
2 | Fc1ccc2c(c1)Cc1c-2n[nH]c1Nc1ccccc1 [Compound 24, (6-Fluoro-2,4-dihydro-indeno[1,2-c]pyrazol-3-yl)-phenyl-amine] | 71% | 84 nM
3 | COc1cc2c(cc1OC)-c1n[nH]c(Nc3ccc(C(F)(F)F)cc3)c1C2 [Compound 25, (6,7-Dimethoxy-2,4-dihydro-indeno[1,2-c]pyrazol-3-yl)-(4-trifluoromethyl-phenyl)-amine] | 62% | 4770 nM
4 | COc1ccccc1Nc1[nH]nc2c1Cc1cc(OC)c(OC)cc1-2 [Compound 27, (6,7-Dimethoxy-2,4-dihydro-indeno[1,2-c]pyrazol-3-yl)-(2-methoxy-phenyl)-amine] | 71% | 655 nM
5 | COc1cc2c(cc1OC)-c1n[nH]c(Nc3ccccc3C(F)(F)F)c1C2 [Compound 28, (6,7-Dimethoxy-2,4-dihydro-indeno[1,2-c]pyrazol-3-yl)-(2-trifluoromethyl-phenyl)-amine] | 96% | 19100 nM
6 | COc1cc2c(cc1OC)-c1n[nH]c(Nc3ccccc3C)c1C2 [Compound 31, (6,7-Dimethoxy-2,4-dihydro-indeno[1,2-c]pyrazol-3-yl)-o-tolyl-amine] | 59% | 115 nM
7 | COc1cc2c(cc1OC)-c1n[nH]c(Nc3ccc(C)cc3)c1C2 [Compound 33, (6,7-Dimethoxy-2,4-dihydro-indeno[1,2-c]pyrazol-3-yl)-p-tolyl-amine] | 59% | 1410 nM
8 | COc1cc2c(cc1OC)-c1n[nH]c(Nc3cc(Cl)ccc3Cl)c1C2 [Compound 34, (2,5-Dichloro-phenyl)-(6,7-dimethoxy-2,4-dihydro-indeno[1,2-c]pyrazol-3-yl)-amine] | 57% | 6990 nM
9 | O=C1c2ccccc2-c2n[nH]c(Nc3ccccc3)c21 [Compound 35, 3-Phenylamino-2H-indeno[1,2-c]pyrazol-4-one] | 88% | 2060 nM
10 | COc1cc2c(cc1OC)-c1n[nH]c(Nc3ccc4cn[nH]c4c3)c1C2 [Compound 37, (6,7-Dimethoxy-2,4-dihydro-indeno[1,2-c]pyrazol-3-yl)-(1H-indazol-6-yl)-amine] | 80% | 1980 nM
11 | COc1cc2c(cc1OC)-c1n[nH]c(Nc3ccc(N(C)C)cc3)c1C2 [Compound 40] | 63% | 5950 nM
12 | COc1cc2c(cc1OC)-c1n[nH]c(Nc3cc(OC)c(OC)c(OC)c3)c1C2 [Compound 42, (6,7-Dimethoxy-2,4-dihydro-indeno[1,2-c]pyrazol-3-yl)-(3,4,5-trimethoxy-phenyl)-amine] | 85% | 692 nM
13 | COc1cc2c(cc1OC)-c1n[nH]c(Nc3ccccc3Br)c1C2 [Compound 43, (2-Bromo-phenyl)-(6,7-dimethoxy-2,4-dihydro-indeno[1,2-c]pyrazol-3-yl)-amine] | 60% | 195 nM
14 | COc1cc2c(cc1OC)-c1n[nH]c(Nc3ccc(Br)cc3)c1C2 [Compound 45, (4-Bromo-phenyl)-(6,7-dimethoxy-2,4-dihydro-indeno[1,2-c]pyrazol-3-yl)-amine] | 86% | 2160 nM
15 | COc1cc2c(cc1OC)-c1n[nH]c(Nc3cc(Cl)ccc3C)c1C2 [Compound 46, (5-Chloro-2-methyl-phenyl)-(6,7-dimethoxy-2,4-dihydro-indeno[1,2-c]pyrazol-3-yl)-amine] | 51% | 14200 nM
16 | COc1ccc(Nc2[nH]nc3c2Cc2cc(OC)c(OC)cc2-3)c(OC)c1 [Compound 47, (6,7-Dimethoxy-2,4-dihydro-indeno[1,2-c]pyrazol-3-yl)-(2,4-dimethoxy-phenyl)-amine] | 47% | 
17 | COc1ccc(OC)c(Nc2[nH]nc3c2Cc2cc(OC)c(OC)cc2-3)c1 [Compound 48, (6,7-Dimethoxy-2,4-dihydro-indeno[1,2-c]pyrazol-3-yl)-(2,5-dimethoxy-phenyl)-amine] | 39% | 
18 | COc1ccc(Nc2[nH]nc3c2Cc2cc(OC)c(OC)cc2-3)cc1OC [Compound 49, (6,7-Dimethoxy-2,4-dihydro-indeno[1,2-c]pyrazol-3-yl)-(3,4-dimethoxy-phenyl)-amine] | 72% | 3070 nM
19 | OC1c2ccccc2-c2n[nH]c(Nc3ccccc3)c21 (centres unmarked) [Compound 50, 3-Phenylamino-2,4-dihydro-indeno[1,2-c]pyrazol-4-ol] | 38% | 11400 nM
20 | COc1cc2c(cc1OC)-c1n[nH]c(Nc3ccc(N4CCN(C)CC4)cc3)c1C2 [Compound 51, (6,7-Dimethoxy-2,4-dihydro-indeno[1,2-c]pyrazol-3-yl)-[4-(4-methyl-piperazin-1-yl)-phenyl]-amine] | 30% | 26700 nM
21 | c1ccc(Nc2[nH]nc3c2CCc2sccc2-3)cc1 [Compound 52, (4,5-Dihydro-2H-6-thia-1,2-diaza-as-indacen-3-yl)-phenyl-amine] | 71% | 2400 nM
22 | COc1cc2c(cc1OC)-c1n[nH]c(Nc3ccc(F)c(Cl)c3)c1C2 [Compound 53, (3-Chloro-4-fluoro-phenyl)-(6,7-dimethoxy-2,4-dihydro-indeno[1,2-c]pyrazol-3-yl)-amine] | 94% | 58.6 nM
23 | COc1cc2c(cc1OC)-c1n[nH]c(Nc3cc(F)ccc3F)c1C2 [Compound 55, (2,5-Difluoro-phenyl)-(6,7-dimethoxy-2,4-dihydro-indeno[1,2-c]pyrazol-3-yl)-amine] | 76% | 636 nM
24 | COc1ccc(Cl)cc1Nc1[nH]nc2c1Cc1cc(OC)c(OC)cc1-2 [Compound 56, (5-Chloro-2-methoxy-phenyl)-(6,7-dimethoxy-2,4-dihydro-indeno[1,2-c]pyrazol-3-yl)-amine] | 36% | 8400 nM
25 | COc1cc2c(cc1OC)-c1n[nH]c(Nc3ccccc3C(C)C)c1C2 [Compound 57, (6,7-Dimethoxy-2,4-dihydro-indeno[1,2-c]pyrazol-3-yl)-(2-isopropyl-phenyl)-amine] | 71% | 2150 nM
26 | CCc1ccccc1Nc1[nH]nc2c1Cc1cc(OC)c(OC)cc1-2 [Compound 58, (6,7-Dimethoxy-2,4-dihydro-indeno[1,2-c]pyrazol-3-yl)-(2-ethyl-phenyl)-amine] | 40% | 8520 nM
27 | COc1cc2c(cc1OC)-c1n[nH]c(Nc3ccc(C#N)cc3)c1C2 [Compound 59, 4-(6,7-Dimethoxy-2,4-dihydro-indeno[1,2-c]pyrazol-3-ylamino)-benzonitrile] | 71% | 1820 nM
28 | COc1cc2c(cc1OC)-c1n[nH]c(Nc3cccc(C#N)c3)c1C2 [Compound 61, 3-(6,7-Dimethoxy-2,4-dihydro-indeno[1,2-c]pyrazol-3-ylamino)-benzonitrile] | 71% | 137 nM
29 | COc1cc2c(cc1OC)-c1n[nH]c(Nc3ccc4c(c3)OCO4)c1C2 [Compound 62, Benzo[1,3]dioxol-5-yl-(6,7-dimethoxy-2,4-dihydro-indeno[1,2-c]pyrazol-3-yl)-amine] | 85% | 313 nM

From US7196110B2, “N-substituted tricyclic 3-aminopyrazoles as inhibitors for the treatment of cell proliferative disorders” (Janssen Phamaceutica N.V., priority 2002, dated 2007)
